Source: patent US20210055311A1, “SCREENING METHOD FOR ESTROGENIC AND ANTI-ESTROGENIC ACTIVITY” (BUNDESINSTITUT FÜR RISIKOBEWERTUNG, priority 2018, published 2021)

Assays:
Type in all cases: cell-based, human
[1] = tested on: MCF-7/vBOS breast cancer cells; experiment: Cell stiffness by atomic force microscopy (AFM) indentation
Description: (§1) FIG. 10 illustrates that inhibition of ERα signaling increases tissue stability by modulating cell mechanics and cell motility. (A) Quantification of cell stiffness (Apparent elastic (Young's) modulus) by atomic force microscopy (AFM) indentation measurements on cells treated with fulvestrant for 48 hours (ERepl.1=0.7141±0.1193 kPa; ERepl.2=0.651±0.1407 kPa; ERepl.3=0.5938±0.1564 kPa; mean±s.d.) compared to solvent control cells (, ERepl.1=0.4841±0.1194 kPa; ERepl.2=0.4088±0.1513 kPa; ERepl.3=0.4660±0.1189 kPa). Biological replicates, n=3; 50-60 cells per condition. Boxes, 25th, 50th (median), and 75th percentiles. Whiskers, 10th and 90th percentiles. Cross, mean for each group. Statistical testing, Mann-Whitney tests; **, p values<0.01. (B) Quantification of cell motility (velocity) by manual tracking of cells treated with fulvestrant for 48 hours (VRepl.1=0.0613±0.0176 μm/min; VRepl.2=0.0553±0.0157 μm/min; VRepl.3=0.051±0.014 μm/min; mean±s.d.) compared to solvent control cells (VRepl.1=0.113±0.0237 μm/min; VRepl.2=0.0757±0.023 μm/min; VRepl.3=0.0827±0.0174 μm/min). Biological replicates, n=3; 3 fields with 10 cells each per replicate and condition were imaged every 10 minutes over the course of 16 h. Boxes, 25th, 50th (median), and 75th percentiles. Whiskers, 10th and 90th percentiles. Cross, mean for each group. Statistical testing, Mann-Whitney tests; **, p values<0.01.
To test whether anti-estrogens also impact on the biomechanical properties of MCF-7/vBOS breast cancer cells, the inventors performed atomic force microscopy (AFM) indentation measurements on confluent monolayers. For this purpose, MCF7/vBos cells were grown and treated in 35 mm FluoroDish cell culture dishes (WPI) as described above. AFM indentation measurements were performed in CO2 Independent Medium (Gibco) at 37° C. using the NanoWizard 1 or 4 (JPK Instruments). Prior to measurements, tip-less Arrow-TLlsilicone cantilevers (Nanoworld) were equipped with polystyrene beads of 5 μm in diameter (microParticles GmbH, Germany) using epoxy glue, and calibrated using built-in procedures of the SPM software (JPK Instruments). The cantilever was positioned above the confluent epithelial monolayer and lowered with a speed of 10 μm/s. In each experiment, force-distance curves (force setpoint 2.5 nN) from 3-4 different positions per cell were collected. Force-distance curves were transformed into force-versus-tip sample separation curves according to Radmacher (Methods Cell Biol 2002; 68:67-90), and fitted with the Hertz/Sneddon model (27) for a spherical indenter using the JPK Data Processing software (JPK Instruments). […] Apparent elastic (Young's) moduli were determined using the Hertz model for a quadratic pyramid using the JPK Data Processing software (JPK Instruments).

MCF-7/vBOS cells = experiment: Adherens junction stability: cell rounding after EGTA-containing medium (live imaging); conditions: pre-treated 48 hours; EGTA 8×10^−3 M, 120 minutes; vs control cells
Description: FIG. 9 provides a CellProfiler/CellProfiler-Analyst-based quantification (analogous to FIG. 7) showing the rate of cell rounding over the course of 120 minutes in MCF7/vBOS cells pre-treated with fulvestrant for 48 hours (dotted bars) compared to solvent control cells (black bars). Indicated time points depict time after application of EGTA-containing medium (EGTA, 8×10^−3 M) to disrupt adherens junctions. Biological replicates, n=3. Error bars, mean+/−s.e.m. Statistical testing, one-way ANOVA with Sidak's correction for multiple comparisons; *, p<0.05; **, p<0.01; ***, p<0.005; ****, p<0.001. Scale bar, 50 μm.
In a further set of experiments, the inventors tested whether the anti-estrogen-mediated reorganization of adherens junctions likewise increased adherens junction stability in MCF-7/vBOS cells. Therefore, EGTA-containing medium (8×10^−3 M) was applied to both control cells and cells pre-treated for 48 hours with fulvestrant to disrupt homophilic E-Cadherin binding, and the fraction of rounded cells was monitored over the course of 120 minutes by live imaging. Quantification of rounded cells vs. non-rounded cells was done in analogous manner as described above in example 7 for quantification of continuous and discontinuous adherens junctions.

[2] = tested on: MCF-7/vBOS breast cancer cells; experiment: Cell motility by manual tracking in confluent monolayer after scratch
Description: as §1
Given that anti-estrogens increase adherens junction stability and cell rigidity, the inventors asked whether cell motility was likewise affected.

[3] = treated 48 hours, mean±s.d., replicate 1
[4] = treated 48 hours, mean±s.d., replicate 2
[5] = treated 48 hours, mean±s.d., replicate 3

Question: Which results are given for `C[C@]12CC[C@@H]3c4ccc(O)cc4C[C@@H](CCCCCCCCC[S+]([O-])CCCC(F)(F)C(F)(F)F)[C@H]3[C@@H]1CC[C@@H]2O` (stereo partly shown) [Fulvestrant]?
Answer: cell rigidity ([1]; throughout the cell surface and at junctional regions, vs solvent control): significantly elevated; Apparent elastic (Young's) modulus, Repl.1 [1, 3]: 0.7141±0.1193 kPa; Apparent elastic (Young's) modulus, Repl.2 [1, 4]: 0.651±0.1407 kPa; Apparent elastic (Young's) modulus, Repl.3 [1, 5]: 0.5938±0.1564 kPa; rate of cell rounding (MCF-7/vBOS cells): significantly reduced; cell motility (velocity), Repl.1 [2, 3]: 0.0613±0.0176 μm/min; cell motility (velocity), Repl.2 [2, 4]: 0.0553±0.0157 μm/min; cell motility (velocity), Repl.3 [2, 5]: 0.051±0.014 μm/min; velocity of cells ([2]; vs solvent control): significantly reduced; length of cell trajectories ([2]; vs solvent control, data not shown): significantly reduced
